Reference: PubChem BioAssay AID179 (DTP/NCI, 2004)
Active and inactive are the calls of the source.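 How the source made its calls: active means compounds giving half or more protection of infected cells from virus-caused growth loss, again on retest; inactive means the rest.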 Where a SMILES comes first, the peptide text is derived from it.

Test system: CEM cells HIV-1 protection, formazan growth assay
Assay: NCI AIDS Antiviral Assay
Details: for IC50: measured here: growth of uninfected CEM cells
Summary of the method: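 Protection of CEM cells against HIV-1 measured as cell growth via soluble formazan read-out, with five concentrations tested on both infected and uninfected cells; failure to protect may reflect toxicity.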

Row | SMILES | EC50 [µM] | IC50 [µM] | outcome
1 | CC(=Nc1ccccc1C(=O)O)c1c(O)ccc2c(C)cc(=O)oc12 | > 107 | > 107 | 
2 | CC1=C(/C(C)=C\C(=O)O)CC2C(C)C(=O)CO[C@H]2C1 (stereo partly drawn) |  |  | inactive
3 | CN1CCOC1(C)c1ccccc1 (stereo not drawn) | > 200 | > 200 | 
4 | COc1ccc(OC)c(/C=C/NC=O)c1 | > 200 | > 200 | 
5 | Cc1ccccc1-c1nc2ccc(N)nc2nc1N |  |  | inactive
6 | Cc1cccc(C)c1NC(=O)C(=O)Cc1nc2ccccc2s1 |  |  | inactive
7 | COC(=O)c1ccccc1/C=C1\Cc2ccc3c(c2C1=O)CCCC3 | > 200 | > 200 | 
8 | Nc1ccc(C(=Nc2ccccc2)c2ccc(N)cc2)cc1 |  |  | inactive
9 | CCCCCCCCCCCC(=O)OCCOCCOCCOCCOCCOC(=O)CCCCCCCCCCC |  |  | inactive
10 | Nc1nc(Cl)c2ncn(C3C=CC(O)CC3)c2n1 (stereo not drawn) | > 933 | 52.5 | 
11 | OC1C2[C@@H](O)CCCN2C[C@@H](O)[C@H]1O (stereo partly drawn) | > 200 | > 200 | 
12 | Cc1ncc([N+](=O)[O-])n1CC(O)CCl (stereo not drawn) | > 200 | > 200 | 
13 | CN(C)CCC[N+]1=Nc2cccc3cccc(c23)N1 |  |  | inactive
14 | O=c1c2ccccc2c(=O)n2n1C1CCC2C1 | > 1100 | > 1100 | 
15 | CC(C#N)Nc1ccc(Oc2ccc(C(C)(C)c3ccc(Oc4ccc(NC(C)C#N)cc4)cc3)cc2)cc1 (stereo not drawn) | > 200 | 13.5 | 
16 | Oc1[nH]c2ccccc2c1N=NC(=S)N1CCCCCC1 | > 200 | 1.32 | 
17 | Cc1ccc(C)n1-c1ccccc1C1C=CN(C(=O)OC(C)(C)C)C=C1 | > 200 | 30.2 | 
18 | CC1NC(=O)C2=C1C(N)=NC(=O)C2 (stereo not drawn) | > 1000 | > 1000 | 
19 | O=[N+]([O-])c1cc(-c2nnc(C34CC5CC(CC(C5)C3)C4)o2)cc([N+](=O)[O-])c1 | > 200 | > 200 | 
20 | O=C1CC2(CCN(CC3COc4ccccc4O3)CC2)C(=O)N1N1CCCCCC1 (stereo not drawn) | > 200 | 72.4 | 
21 | CN(C)c1ccc(/C=C/c2ccc(/C=C/c3ccc(N(C)C)cc3)cc2)cc1 |  |  | inactive
22 | COc1ccccc1N1CCCSC1=Nc1ccccc1 | 81.3 | 214 | 

Row | SMILES | EC50 [µM] | IC50 [µM] | outcome
23 | CC(=O)N1C(C(=O)NNc2ccccc2)CSC1c1ccccc1 (stereo not drawn) | > 200 | 12.3 | 
24 | OC1(C2(O)c3ccccc3-c3ccccc32)c2ccccc2-c2ccccc21 | > 72.4 | 41.7 | 
25 | ClC[Si]12OCCN(CCO1)CCO2 |  |  | inactive
26 | Cc1c2c(n3c(nc4ccccc43)c1C#N)N(c1ccc(Cl)cc1)CC2 | > 50.1 | > 50.1 | 
27 | CCOC(=O)c1ccc(OCc2nc3cc(C(F)(F)F)ccc3nc2-c2ccccc2)cc1 | > 200 | 87.1 | 
28 | OC(Cc1ccc2ccccc2n1)(C(F)(F)F)C(F)(F)F | > 200 | > 200 | 
29 | NC(=O)CNC(=O)c1ccccc1SC(=O)CCCC[n+]1ccccc1 | 1.74 | 178 | 
30 | COc1cc2oc(-c3ccc(O)cc3)c(OC3OC(C)C(O)C(O)C3O)c(=O)c2c(O)c1OC (stereo not drawn) |  |  | inactive
31 | CC1NC(C)SC(C)S1 (stereo not drawn) | > 200 | > 200 | 
32 | O=C1c2c(c3c4ccccc4n(COCCO)c3c3[nH]c4ccccc4c23)C(=O)N1Cc1ccccc1 | > 15.8 | 6.92 | 
33 | CC(=O)Nc1cc2c(cc1O)CC[C@@H]1[C@@H]2CC[C@]2(C)[C@@H](O)CC[C@@H]12 | > 200 | 20.9 | 
34 | O=S1(=O)C2CCCC1C(Cl)CC2 (stereo not drawn) | > 47.9 | > 47.9 | 
35 | CC1=C(\C=C/C(C)=C/C=C/C(C)=C/C=N/N=C/C=C(C)\C=C\C=C(C)/C=C/C2=C(C)CCCC2(C)C)C(C)(C)CCC1 | > 200 | 45.7 | 
36 | Nc1nc(N)nc(-c2cccs2)n1 | > 200 | > 200 | 
37 | Cc1cn([C@H]2C[C@@H](N3C(=O)c4ccccc4C3=O)[C@@H](CO[Si](C)(C)C(C)(C)C)O2)c(=O)[nH]c1=O | > 200 | 151 | 
38 | Cc1cc(Cl)cc2c1NC(=O)C2(O)CC(=O)c1ccc(F)cc1 (stereo not drawn) | > 15.5 | > 15.5 | 
39 | CCOC(=N)COC(=O)c1ccccc1 | > 200 | > 200 | 
40 | CC1=CC(=O)N(n2c(-c3ccccc3)n[nH]c2=O)C1=O | > 200 | > 200 | 
41 | CCN(CC)c1cc2c3c(c1)CCCN3CCC2 | > 100 | 95.5 | 
42 | CC(=O)O[C@H]1CC[C@H]2[C@@H]3CCC4C(C)=NNC(=O)C4[C@H]3CC[C@]12C (stereo partly drawn) | > 200 | > 200 | 
43 | C/C(=N\NC(N)=S)C(CN(CC(C)C)CC(C)C)C(=O)Nc1ccc(C)cc1C (stereo not drawn) | > 85.1 | > 85.1 | 
44 | CCOc1ccc(N=NC2C(=O)N(C(=O)CC(=O)Nc3ccccc3)N=C2C)cc1 (stereo not drawn) | > 200 | 20.4 | 

Row | SMILES | EC50 [µM] | IC50 [µM] | outcome
45 | O=c1[nH]c2ccccc2c(O)c1Cc1c(O)c2ccccc2[nH]c1=O | > 25.1 | > 25.1 | 
46 | C[N+]1=C2[B-](C(C)(C)C)=[N+](C(C)(C)C)[B-]2(C(C)(C)C)[N+](C)=C2[B-](C(C)(C)C)=[N+](C(C)(C)C)[B-]21C(C)(C)C (stereo not drawn) | > 50.1 | > 50.1 | 
47 | COC1=CC(=O)C2C(C1=O)[C@@H]1c3ccccc3C[C@H]21 (stereo partly drawn) | > 195 | > 100 | 
48 | Cc1cn([C@H]2C[C@@H](N(O)C(=O)Nc3ccccc3)[C@@H](CO)O2)c(=O)[nH]c1=O | > 200 | > 200 | 
49 | CC(NC(=O)CNC(=O)C(N)CO)C(=O)NC(CCC(=O)O)C(=O)NC(CCCCN)C(=O)NC(CO)C(=O)NC(CCCCN)C(=O)NC(CCCCN)C(=O)NC(CCCCN)C(=O)NCC(=O)NC(CO)C(=O)NC(CC(N)=O)C(=O)NC(C)C(=O)NC(Cc1cnc[nH]1)C(=O)NC(CO)C(=O)O (stereo not drawn) (H-SGAEKSKKKGSNAHS-OH; configuration not given here) |  |  | inactive
50 | CC1OC(n2cc(F)c(=O)[nH]c2=O)C=CC1O (stereo not drawn) | > 1020 | 407 | 
51 | OCC1OC(n2ccc3cnccc32)CC1O (stereo not drawn) |  |  | inactive
52 | CC(C)(C)C1CCC(CC(=O)O)(CC(=O)Nc2nccs2)CC1 (stereo not drawn) | > 200 | 89.1 | 
53 | CN(C)c1ccc(/C=C(\NC(=O)c2ccccc2)C(=O)NC(CCC(=O)O)C(=O)O)cc1 (stereo not drawn) | > 50.1 | 34.7 | 
54 | Nc1nc(Cl)cc(OCC2(CO)CCC2)n1 | > 200 | 135 | 
55 | CCOc1cc(NCCCN)c2nc(OCc3ccccc3)ccc2c1 | > 200 | 25.7 | 
56 | O=c1c(O)c(-c2ccc(O)cc2O)oc2cc(O)cc(O)c12 |  |  | inactive
57 | Cc1cc(=O)n(-c2ccccc2)c(=O)n1-c1nc2ccccc2[nH]1 | > 112 | 64.6 | 
58 | NC(=S)C(=S)N=Cc1c(O)c2ccccc2oc1=O | > 200 | 102 | 
59 | c1c[se]c(-c2nc3ccccc3[nH]2)c1 | > 69.2 | > 69.2 | 
60 | Cc1c2ccccc2c(C)c2c3c(ccc12)C(=O)C=CC3=O |  |  | inactive
61 | O=C(Nc1cccc([N+](=O)[O-])c1)C(=O)C(C(=O)c1ccccc1F)C1OC(=O)C2C=CC=CC21 (stereo not drawn) | > 282 | 4.07 | 
62 | CCOP(=O)(OCC)/C(C#N)=C/c1cccc([N+](=O)[O-])c1 | > 813 | 166 | 
63 | C[Si](C)(C)OC1(C#N)C2C3CC4C2C(=O)C2C4C3C21 (stereo not drawn) |  |  | inactive
64 | O=C1/C(=C/c2ccc3c(c2)OCO3)SC2C=Nc3ccccc3N12 (stereo not drawn) | > 2.24 | > 2.24 | 
65 | O=S1(=O)CS(=O)(=O)OCCCCO1 | > 1070 | 63.1 | 
66 | Cc1ccc(S(=O)(=O)N/N=C(/CC(=O)c2c(C)n([O-])c3ccccc3[n+]2=O)C(=O)Nc2ccccc2C)cc1 | > 33.1 | > 33.1 | 

Row | SMILES | EC50 [µM] | IC50 [µM] | outcome
67 | O=c1[nH]nc2ccccc2c1Cl | > 39.8 | 6.76 | 
68 | CC(/C=C/NNC1=NC(c2ccccc2)C(c2ccccc2)=NN1)Sc1ccccc1N (stereo not drawn) | > 81.3 | 1.45 | 
69 | CC1(C)CCc2cc3c(cc2O1)OCC1c2cc4c(cc2OC31)OCO4 (stereo not drawn) |  |  | inactive
70 | O=C(CC(O)(C(F)(F)F)C(F)(F)Cl)CC(O)(C(F)(F)F)C(F)(F)Cl (stereo not drawn) |  |  | inactive
71 | CC(C)c1c2[nH]c3ccccc3c2c(C(C)C)c2[nH]c3ccccc3c12 | > 20 | > 20 | 
72 | COc1ccccc1NC(=O)/C(C=NC(=S)c1ccncc1)=C(\C)O |  |  | inactive
73 | COc1cc2ccc(=O)oc2c2c1OC(C)(C)[C@H](OC(=O)C13CCC(C)(C(=O)O1)C3(C)C)[C@@H]2OC(=O)C12CCC(C)(C(=O)O1)C2(C)C (stereo partly drawn) | > 200 | > 200 | 
74 | Nc1ccn(C2OC(C(O)CO)C(O)C2O)c(=O)n1 (stereo not drawn) |  |  | inactive
75 | O=C1NC(=O)C2C(=O)NC(=O)C1C2Cc1ccco1 (stereo not drawn) | > 955 | > 955 | 
76 | C(=C\c1c2oc(-c3ccccc3)cc(-c3ccccc3)c-2c2ccccc12)/C=C1\c2ccccc2-c2c(-c3ccccc3)cc(-c3ccccc3)[o+]c21 | > 6.76 | > 6.76 | 
77 | CCOP(=O)(OCC)/C(C#N)=C/c1ccc(CO)o1 | > 871 | 178 | 
78 | O=C1c2c(ccc3c2CCC3)CC12Cc1ccccc1C2 | > 200 | > 200 | 
79 | CC(C)N1CSC(=S)N(Cc2ccccc2)C1 | > 37.2 | 32.4 | 
80 | N#CC(c1ccccc1)N(CCOCCOCCN(C(=O)c1cccc2ccccc12)C(C#N)c1ccccc1)C(=O)c1cccc2ccccc12 (stereo not drawn) | > 200 | 13.2 | 
81 | S=C(Nc1ccc(Cl)c(Cl)c1)N1c2ccccc2-n2cccc2C1c1cccnc1 (stereo not drawn) | > 49 | 25.1 | 
82 | O=c1ccn(COC(COCc2ccccc2)COCc2ccccc2)c(=O)[nH]1 |  |  | inactive
83 | Nc1ccc([N+](=O)[O-])cc1CN1C(=O)c2ccccc2C1=O | > 200 | > 200 | 
84 | CN1Cc2cc(O)c(O)cc2C(O)C1 (stereo not drawn) | > 200 | 102 | 
85 | Cc1nnc2n1N=C1CC(C)(C)CC(=O)C1S2 (stereo not drawn) | > 105 | > 105 | 
86 | CCOC(=O)C(C(=N)C(=N)C(C(=O)O)C(=O)OCC)C(=O)O (stereo not drawn) |  |  | inactive
87 | CCOC(=O)NC(=O)c1cn(CCSCCOC(=O)NCCCCCCNC(=O)OCCSCCn2cc(C(=O)NC(=O)OCC)c(=O)[nH]c2=O)c(=O)[nH]c1=O |  |  | inactive
